Holding throughout (assay type): cell-based
Experiment [1] addresses T1, human TRPM8 (Homo sapiens, UniProt Q7Z2W7).
T1 construct: expressed in transfected cells; host or cells: CHO (p658 mammalian expression vector)
Nature of the experiment: In vitro human TRPM8 fluorescence calcium flux assay (recombinant CHO cells, Fluo4-AM, FDSS6000). As to conditions: recombinant CHO cells expressing human TRPM8; menthol-related EC50, normalized to 100 μM menthol. The method, boiled down:
(§1)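 Agonist EC50 values come from sixteen-point dose responses normalized to the 100 μM menthol maximum, fitted sigmoidally. Calcium rise was followed for 3 min post-addition in recombinant CHO lines (human or pig TRPM8). Cells were dye-loaded with 2 μM Fluo4-AM, 1 h at room temperature, probenecid-containing HBSS.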
A general note: A change in cytosolic calcium serves as a functional read-out for many receptors and channels.

Experiment [2] addresses T2, pig TRPM8 (Sus scrofa, UniProt F1SM15).
T2 construct: expressed in transfected cells; host or cells: CHO (pcDNA5/FRT/TO vector; hygromycin B and blasticidin selection)
The experiment can be described thus: In vitro pig TRPM8 fluorescence calcium flux assay (recombinant CHO cells, Fluo4-AM, FDSS6000). As to conditions: recombinant CHO cells expressing pig TRPM8; menthol-related EC50, normalized to 100 μM menthol. Put shortly: as §1

In experiment [3] the target is T1, human TRPM8. The experiment can be described thus: In vitro human TRPM8 automated patch-clamp assay (SyncroPatch 384PE, CHO cells). As to conditions: CHO cells expressing human TRPM8, 28° C. Here is the method: (§2) In Vitro Pig and Human TRPM8 Automated Patch-Clamp Assays
(§3) Automated whole-cell recordings of compound effects were performed on the SyncroPatch 384PE (Nanion Technologies, Munich, Germany) incorporated into a Biomek FX pipetting robot (Beckman Coulter, Jersey City, NJ, USA) using the same engineered CHO cell lines expressing human or pig TRPM8 channels. Data acquisition and analysis were performed with the proprietary software PatchControl 384 and DataControl 384, respectively (Nanion Technologies, Munich, Germany). All recordings were carried out using planar borosilicate glass patch clamp chips in a 384-microtiter plate format with patch hole resistances of 2-4 MO. For recordings, standard intracellular solution was used containing (in mM): 130 KF, 4 NaCl, 1 MgCl2, 0.5 CaCl2, 10 HEPES and 10 EGTA/KOH (pH 7.2) and standard extracellular solution contained in mM: 150 NaCl, 4 KCl, 0.5 CaCl2, 1 MgCl2 and 10 HEPES (pH 7.3).
(§4) Prior to the electrophysiological measurements, cells were harvested using Accutase (GIBCO, Fisher Scientific) and resuspended in warmed extracellular solution. The cell suspension was kept in the dedicated cell reservoir at 28° C. at a 1 million/ml cell density and shaken at 500 rounds per min (rpm). Experiments were performed at 28° C. throughout. Cells were distributed in high resistance 4-holes-per-well Nanion chips where they were caught on the patch holes by application of a −80 mbar pressure. The cell membrane was ruptured to obtain the whole-cell configuration with a pressure pulse of −250 mbar for 2 seconds. Voltage protocols were constructed using PatchControl 384. The cells were held at a holding potential of −60 mV and TRPM8 currents were recorded using a ramp protocol from −80 to +80 mV every 5 seconds before and after compound addition. Resulting currents were recorded at both −80 and +80 mV and current kinetics were exported and analyzed. From each plate, control wells with 200 μM menthol were recorded to validate the assay. One concentration of compound was applied to each of the other wells. For each concentration, compound response was determined by subtracting the baseline current recorded before compound addition from the maximum peak elicited currents obtained after compound addition. Then, each compound response was normalized to control condition without compound and maximum current (Emax) obtained for each compound. Nanion DataControl 384 software plotted current response for each compound concentration and was able to calculate an EC50 value for each active compound.
In general terms: In patch-clamp work, channel activity is measured electrically.

Experiment [4] addresses T2, pig TRPM8. The experiment can be described thus: In vitro pig TRPM8 automated patch-clamp assay (SyncroPatch 384PE, CHO cells). As to conditions: CHO cells expressing pig TRPM8, 28° C. Here is the method: as §2, §3, §4

T1 sequence (Q7Z2W7 whole entry): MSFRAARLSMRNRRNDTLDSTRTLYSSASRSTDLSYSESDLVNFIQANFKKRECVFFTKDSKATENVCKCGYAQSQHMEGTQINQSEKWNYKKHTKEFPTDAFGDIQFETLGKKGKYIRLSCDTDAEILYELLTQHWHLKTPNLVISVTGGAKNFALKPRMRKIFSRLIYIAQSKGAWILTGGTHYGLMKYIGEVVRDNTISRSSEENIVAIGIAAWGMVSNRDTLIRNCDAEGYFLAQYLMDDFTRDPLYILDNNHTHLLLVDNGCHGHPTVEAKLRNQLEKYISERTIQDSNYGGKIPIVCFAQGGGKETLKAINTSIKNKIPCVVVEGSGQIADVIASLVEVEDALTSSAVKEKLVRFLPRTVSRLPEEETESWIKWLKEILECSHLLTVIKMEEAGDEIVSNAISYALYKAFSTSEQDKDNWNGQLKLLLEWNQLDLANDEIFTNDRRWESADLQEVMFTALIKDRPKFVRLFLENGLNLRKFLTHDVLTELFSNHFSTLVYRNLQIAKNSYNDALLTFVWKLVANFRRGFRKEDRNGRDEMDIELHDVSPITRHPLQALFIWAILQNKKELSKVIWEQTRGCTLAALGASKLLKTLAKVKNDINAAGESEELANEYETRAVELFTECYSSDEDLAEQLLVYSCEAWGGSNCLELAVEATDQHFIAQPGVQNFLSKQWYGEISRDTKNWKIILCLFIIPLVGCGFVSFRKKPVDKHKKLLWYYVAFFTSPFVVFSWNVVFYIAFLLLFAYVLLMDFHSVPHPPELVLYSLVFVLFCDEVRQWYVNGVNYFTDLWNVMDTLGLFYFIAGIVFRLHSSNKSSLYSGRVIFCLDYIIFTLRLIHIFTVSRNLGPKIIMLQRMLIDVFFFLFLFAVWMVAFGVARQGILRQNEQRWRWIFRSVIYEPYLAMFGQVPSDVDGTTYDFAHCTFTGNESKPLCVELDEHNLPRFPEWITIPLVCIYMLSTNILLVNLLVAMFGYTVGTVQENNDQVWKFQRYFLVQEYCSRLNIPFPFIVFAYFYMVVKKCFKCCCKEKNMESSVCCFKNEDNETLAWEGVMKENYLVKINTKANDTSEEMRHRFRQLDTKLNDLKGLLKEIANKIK
T2 sequence (F1SM15 1-1104): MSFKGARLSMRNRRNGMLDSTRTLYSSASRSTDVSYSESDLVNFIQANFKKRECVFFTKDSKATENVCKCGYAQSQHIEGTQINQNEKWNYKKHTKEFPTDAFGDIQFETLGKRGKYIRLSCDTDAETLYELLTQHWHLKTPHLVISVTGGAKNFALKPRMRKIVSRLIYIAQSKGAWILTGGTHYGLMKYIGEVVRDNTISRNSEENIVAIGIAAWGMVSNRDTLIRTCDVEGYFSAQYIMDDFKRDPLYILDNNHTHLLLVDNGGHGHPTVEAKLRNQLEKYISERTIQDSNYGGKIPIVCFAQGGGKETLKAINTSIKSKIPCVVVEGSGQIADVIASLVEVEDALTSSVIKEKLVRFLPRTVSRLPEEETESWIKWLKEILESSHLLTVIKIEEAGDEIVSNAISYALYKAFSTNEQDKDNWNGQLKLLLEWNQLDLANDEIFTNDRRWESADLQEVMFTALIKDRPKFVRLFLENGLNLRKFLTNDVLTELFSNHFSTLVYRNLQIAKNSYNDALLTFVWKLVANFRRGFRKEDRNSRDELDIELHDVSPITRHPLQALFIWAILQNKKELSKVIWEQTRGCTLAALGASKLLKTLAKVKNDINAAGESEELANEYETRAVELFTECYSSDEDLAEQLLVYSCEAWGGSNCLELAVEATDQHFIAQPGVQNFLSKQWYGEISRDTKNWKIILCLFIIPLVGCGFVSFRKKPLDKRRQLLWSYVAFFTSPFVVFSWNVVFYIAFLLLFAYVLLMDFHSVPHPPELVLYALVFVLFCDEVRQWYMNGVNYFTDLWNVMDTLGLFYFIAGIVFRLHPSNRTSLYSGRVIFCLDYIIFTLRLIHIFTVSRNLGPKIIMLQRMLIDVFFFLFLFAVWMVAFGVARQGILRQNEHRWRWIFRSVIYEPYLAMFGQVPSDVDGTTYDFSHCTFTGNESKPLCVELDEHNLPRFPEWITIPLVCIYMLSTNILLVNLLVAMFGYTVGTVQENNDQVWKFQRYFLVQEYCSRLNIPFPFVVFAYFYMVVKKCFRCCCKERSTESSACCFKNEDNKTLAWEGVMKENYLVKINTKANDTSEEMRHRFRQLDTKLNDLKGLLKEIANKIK

In the case of `CC(C)[C@@H]1CC[C@@H](C)C[C@@]1(O)C(=O)NCC(F)c1ccccc1` (stereo partly drawn) [Example 5, (1S,2S,5R)—N-(2-fluoro-2-phenylethyl)-1-hydroxy-2-isopropyl-5-methylcyclohexane-1-carboxamide], the EC50 (usually the concentration needed to bring the measured effect to its halfway point) at human TRPM8 [1] was determined as 1.3 nM; on pig TRPM8 [2] it was 0.7 nM; at human TRPM8 [3] it was 950 nM; on pig TRPM8 [4] it was 478 nM.

`CC(C)[C@@H]1CC[C@@H](C)C[C@@]1(O)C(=O)NCC(=O)c1ccc(O)cc1` [Example 143, (1S,2S,5R)-1-hydroxy-N-[2-(4-hydroxyphenyl)-2-oxo-ethyl]-2-isopropyl-5-methyl-cyclohexanecarboxamide]: the EC50 was determined as 5.6 nM on human TRPM8 [1], 7.3 nM at pig TRPM8 [2], 1100 nM at human TRPM8 [3] and 985 nM at pig TRPM8 [4].

Take `COC(=O)C(CNC(=O)[C@]1(O)C[C@H](C)CC[C@H]1C(C)C)c1ccccc1` (stereo partly drawn) [Example 69]: the EC50 was 46 nM at human TRPM8 [1], 42 nM at pig TRPM8 [2], 1930 nM at human TRPM8 [3] and 1580 nM on pig TRPM8 [4].

For `CC(C)[C@@H]1CC[C@@H](C)C[C@@]1(O)C(=O)NCC(=O)c1ccccc1F` [Example 85, (1S,2S,5R)—N-(2-(2-fluorophenyl)-2-oxoethyl)-1-hydroxy-2-isopropyl-5-methylcyclohexane-1-carboxamide], the EC50 on human TRPM8 [1] came to 3.3 nM; on pig TRPM8 [2] it was 2.4 nM; at human TRPM8 [3], 700 nM; on pig TRPM8 [4], 967 nM.

With `COC(=O)Cc1cccc(CCNC(=O)[C@]2(O)C[C@H](C)CC[C@H]2C(C)C)c1` [Example 74, methyl 2-(3-(2-((1S,2S,5R)-1-hydroxy-2-isopropyl-5-methylcyclohexane-1-carboxamido)ethyl)phenyl)acetate], the EC50 was 41 nM at human TRPM8 [1], 9 nM on pig TRPM8 [2], 2900 nM on human TRPM8 [3] and 5190 nM at pig TRPM8 [4].

As for `COc1ccccc1CCNC(=O)[C@]1(O)C[C@H](C)CC[C@H]1C(C)C` [Example 155, (1S,2S,5R)-1-hydroxy-2-isopropyl-N-[2-(2-methoxyphenyl)ethyl]-5-methyl-cyclohexanecarboxamide], the EC50 on human TRPM8 [1] stood at 23.8 nM; on pig TRPM8 [2], 17.4 nM; on human TRPM8 [3], 1200 nM; at pig TRPM8 [4] it was 3500 nM.

Consider `CC(C)[C@@H]1CC[C@@H](C)C[C@@]1(O)C(=O)NCC(=O)Nc1ccc(O)cc1` [Example 88, (1S,2S,5R)-1-hydroxy-N-(2-((4-hydroxyphenyl)amino)-2-oxoethyl)-2-isopropyl-5-methylcyclohexane-1-carboxamide], for which the EC50 at human TRPM8 [1] turned out to be 56.7 nM; on pig TRPM8 [2], 20 nM; at human TRPM8 [3], 1500 nM; at pig TRPM8 [4], 1090 nM.

For the molecule `CC(C)[C@@H]1CC[C@@H](C)C[C@@]1(O)C(=O)NCC(=O)c1cccs1` [Example 149, (1S,2S,5R)-1-hydroxy-2-isopropyl-5-methyl-N-[2-oxo-2-(2-thienyl)ethyl]cyclohexanecarboxamide], the EC50 on human TRPM8 [1] was 6 nM; at pig TRPM8 [2], 2 nM; on human TRPM8 [3], 2300 nM; on pig TRPM8 [4], 1560 nM.

For the molecule `Cc1cccc(C(F)(F)CNC(=O)[C@]2(O)C[C@H](C)CC[C@H]2C(C)C)c1` [Example 187, (1S,2S,5R)—N-[2,2-difluoro-2-(3-methylphenyl)ethyl]-1-hydroxy-2-isopropyl-5-methyl-cyclohexanecarboxamide], the half-maximal effective concentration (EC50) amounted to 33.8 nM on human TRPM8 [1], 6.2 nM on pig TRPM8 [2], 510 nM on human TRPM8 [3] and 550 nM on pig TRPM8 [4].

As for `CC(C)[C@@H]1CC[C@@H](C)C[C@@]1(O)C(=O)NCC(=O)c1ccccc1O` [Example 38, (1S,2S,5R)-1-hydroxy-N-(2-(2-hydroxyphenyl)-2-oxoethyl)-2-isopropyl-5-methylcyclohexane-1-carboxamide], the EC50 on human TRPM8 [1] is 2.4 nM; at pig TRPM8 [2], 1.8 nM; on human TRPM8 [3] it was 470 nM; on pig TRPM8 [4] it was 276 nM.

On to `[2H]C(O)(CNC(=O)[C@]1(O)C[C@H](C)CC[C@H]1C(C)C)c1ccccc1` (stereo partly drawn) [Example 72, (1S,2S,5R)-1-hydroxy-N-(2-hydroxy-2-phenylethyl-2-d)-2-isopropyl-5-methylcyclohexane-1-carboxamide], for which the EC50 at human TRPM8 [1] was 3 nM; on pig TRPM8 [2] it was 2 nM; at human TRPM8 [3] it was 1390 nM; on pig TRPM8 [4] it was 790 nM.

As to `CC(C)[C@@H]1CC[C@@H](C)C[C@@]1(O)C(=O)NC[C@@H](O)c1cccc(O)c1` [Example 42, (1S,2S,5R)-1-hydroxy-N-((2S)-hydroxy-2-(3-hydroxyphenyl)ethyl)-2-isopropyl-5-methylcyclohexane-1-carboxamide], the concentration for a half-maximal effect (EC50) at human TRPM8 [1] amounted to 12.4 nM; on pig TRPM8 [2] it was 3.8 nM; on human TRPM8 [3], 910 nM; at pig TRPM8 [4], 921 nM.

Regarding `CC(C)[C@@H]1CC[C@@H](C)C[C@@]1(O)C(=O)N[C@H](CO)Cc1ccccc1` [Example 146, (1S,2S,5R)-N-[(1S)-1-benzyl-2-hydroxy-ethyl]-1-hydroxy-2-isopropyl-5-methyl-cyclohexanecarboxamide], the EC50 on human TRPM8 [1] was found to be 16 nM; at pig TRPM8 [2], 16 nM; on human TRPM8 [3], 1200 nM; at pig TRPM8 [4] it was 2390 nM.

On to `CC(C)[C@@H]1CC[C@@H](C)C[C@@]1(O)C(=O)NCC(=O)Nc1ccccc1` [Example 129, (1S,2S,5R)-N-(2-anilino-2-oxo-ethyl)-1-hydroxy-2-isopropyl-5-methyl-cyclohexanecarboxamide], for which the EC50 on human TRPM8 [1] stood at 6.9 nM; at pig TRPM8 [2], 2.6 nM; on human TRPM8 [3], 3000 nM; on pig TRPM8 [4] it was 1250 nM.

`COC(=O)COc1cccc(CCNC(=O)[C@]2(O)C[C@H](C)CC[C@H]2C(C)C)c1` [Example 64, methyl 2-(3-(2-((1S,2S,5R)-1-hydroxy-2-isopropyl-5-methylcyclohexane-1-carboxamido)ethyl)phenoxy)acetate]: the EC50 was determined as 16.6 nM on human TRPM8 [1], 8.3 nM at pig TRPM8 [2], 5820 nM on human TRPM8 [3] and 3870 nM on pig TRPM8 [4].

For `COC(=O)CCc1ccccc1CCNC(=O)[C@]1(O)C[C@H](C)CC[C@H]1C(C)C` [Example 93, methyl 3-(2-(2-((1S,2S,5R)-1-hydroxy-2-isopropyl-5-methylcyclohexane-1-carboxamido)ethyl)phenyl)propanoate], the EC50 on human TRPM8 [1] was determined as 49.3 nM; at pig TRPM8 [2], 67.8 nM; at human TRPM8 [3], 2800 nM; on pig TRPM8 [4], 2000 nM.

In the case of `CC(C)[C@@H]1CC[C@@H](C)C[C@@]1(O)C(=O)NCC(O)c1ccc(F)cc1` (stereo partly drawn) [Example 158, (1S,2S,5R)-N-[2-(4-fluorophenyl)-2-hydroxy-ethyl]-1-hydroxy-2-isopropyl-5-methyl-cyclohexanecarboxamide], the EC50 stood at 7 nM at human TRPM8 [1], 3 nM at pig TRPM8 [2], 1900 nM on human TRPM8 [3] and 940 nM at pig TRPM8 [4].

For `CC(C)[C@@H]1CC[C@@H](C)C[C@@]1(O)C(=O)NCCc1cccnc1` [Example 124, (1S,2S,5R)-1-hydroxy-2-isopropyl-5-methyl-N-[2-(3-pyridyl)ethyl]cyclohexanecarboxamide], the EC50 at human TRPM8 [1] is 36.6 nM; on pig TRPM8 [2], 11.7 nM; on human TRPM8 [3] it was 6500 nM; at pig TRPM8 [4] it was 6760 nM.
